Experiments:
Gal4-RORγ-LBD = molecular target: T1, Gal4-RORγ-LBD (Homo sapiens, UniProt P51449); assay: Gal4-RORγ Luciferase Reporter Assay in HEK-293T Cells; type: cell-based; details: HEK-293 cells, luciferase reporter, with 2 μM ursolic acid
T1 construct: expressed in transfected cells; host or cells: HEK-293 cells (pcDNA3.1neo plasmid)
T1 sequence (P51449 269-508 limits assumed): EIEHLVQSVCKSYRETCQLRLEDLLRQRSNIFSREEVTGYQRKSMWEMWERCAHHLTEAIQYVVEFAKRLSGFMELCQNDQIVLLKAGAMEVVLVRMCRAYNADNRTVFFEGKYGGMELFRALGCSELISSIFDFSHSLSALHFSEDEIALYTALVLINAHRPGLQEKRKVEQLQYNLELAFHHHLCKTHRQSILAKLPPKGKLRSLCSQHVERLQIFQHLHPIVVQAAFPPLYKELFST
How it was run: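 In transfected HEK-293 cells (Gal4-RORγ-LBD, Gal4-luciferase), test agents with 2 μM ursolic acid were incubated overnight at 37 °C before luminescent detection. Values are relative to the ursolic-acid-free, compound-free signal (100).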

RORγ-LBD = molecular target: T2, RORγ-LBD (Homo sapiens, UniProt P51449); assay: RORγ-Ligand Binding Domain (LBD) TR-FRET Assay; type: biochemical;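 for TR-FRET Assay Max Response: 665/615 nm ratio relative to signal without ursolic acid or compound set at 100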
T2 construct: made in house; host or cells: SF9 cells (baculovirus)
T2 sequence (P51449 269-508 limits assumed): T1 sequence (P51449 269-508 limits assumed)
How it was run: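 Lysate from SF9 cells expressing His-RORγ-LBD is diluted to about 3 nM final in 50 mM Tris pH 7.0 assay buffer. A biotin-tagged SRC1 LXXLL peptide goes in at 200 nM final, plus ursolic acid at 2 μM final. Test compounds carry 1% DMSO final; signal read by TR-FRET.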

| EC50 (Gal4-RORγ-LBD) [nM] | EC50 (RORγ-LBD) [nM] | SMILES | Gal4-RORγ Assay Max Response (Gal4-RORγ-LBD) | TR-FRET Assay Max Response (RORγ-LBD) |
| --- | --- | --- | --- | --- |
| < 500 | < 500 | O=C(NC[C@H]1CN(S(=O)(=O)c2cccc(C(F)(F)F)c2)c2cc(-c3cc(F)ccc3F)ccc2O1)C1CCCC1 [Compound 30AZ, (S)-N-((6-(2,5-difluorophenyl)-4-((3-(trifluoromethyl)phenyl)-sulfonyl)-3,4-dihydro-2H-benzo-[b][1,4]oxazin-2-yl)methyl)-cyclopentanecarboxamide] | ** (The symbol “**” indicates a value in the range of greater than 90 to 150) | **** (The symbol “****” indicates a value greater than 200) |
| < 500 | < 500 | CC(C)(O)C(=O)NCC[C@H]1CN(S(=O)(=O)c2cccc(C(F)(F)F)c2)c2cc(-c3cccc(C(F)(F)F)n3)ccc2O1 [Compound 30B, (S)-2-hydroxy-2-methyl-N-(2-(4-((3-(trifluoromethyl)phenyl)-sulfonyl)-6-(6-(trifluoromethyl)-pyridin-2-yl)-3,4-dihydro-2H-benzo[b][1,4]oxazin-2-yl)ethyl)propanamide] | ** (The symbol “**” indicates a value in the range of greater than 90 to 150) | **** (The symbol “****” indicates a value greater than 200) |
| < 500 | < 500 | O=C(CO)NC[C@H]1CN(S(=O)(=O)c2cccc(C(F)(F)F)c2)c2cc(-c3cc(F)ccc3F)ccc2O1 [Compound 30BA, (S)-N-((6-(2,5-difluorophenyl)-4-((3-(trifluoromethyl)phenyl)-sulfonyl)-3,4-dihydro-2H-benzo[b][1,4]oxazin-2-yl)methyl)-2-hydroxyacetamide] | ** (The symbol “**” indicates a value in the range of greater than 90 to 150) | *** (The symbol “***” indicates a value in the range of greater than 150 to 200) |
| < 500 | < 500 | O=C(NC[C@H]1CN(S(=O)(=O)c2cccc(C(F)(F)F)c2)c2cc(-c3cc(F)ccc3F)ccc2O1)C1CCC1 [Compound 30BB, (S)-N-((6-(2,5-difluorophenyl)-4-((3-(trifluoromethyl)phenyl)-sulfonyl)-3,4-dihydro-2H-benzo-[b][1,4]oxazin-2-yl)methyl)-cyclobutanecarboxamide] | * (The symbol “*” indicates a value in the range of 25 to 90) | *** (The symbol “***” indicates a value in the range of greater than 150 to 200) |
| < 500 | < 500 | CN(C)c1cccc(-c2ccc3c(c2)N(S(=O)(=O)c2cccc(C(F)(F)F)c2)C[C@H](CNC(=O)C2CC2)O3)n1 [Compound 30BC, (S)-N-((6-(6-(dimethylamino)-pyridin-2-yl)-4-((3-(trifluoro-methyl)phenyl)sulfonyl)-3,4-dihydro-2H-benzo[b][1,4]-oxazin-2-yl)methyl)cyclo-propanecarboxamide] | ** (The symbol “**” indicates a value in the range of greater than 90 to 150) | *** (The symbol “***” indicates a value in the range of greater than 150 to 200) |
| < 500 | < 500 | CC(=O)NC[C@H]1CN(S(=O)(=O)c2cccc(C(F)(F)F)c2)c2cc(-c3cc(F)ccc3F)ccc2O1 [Compound 30BD, (S)-N-((6-(2,5-difluorophenyl)-4-((3-(trifluoromethyl)phenyl)-sulfonyl)-3,4-dihydro-2H-benzo[b][1,4]oxazin-2-yl)methyl)acetamide] | ** (The symbol “**” indicates a value in the range of greater than 90 to 150) | **** (The symbol “****” indicates a value greater than 200) |
| < 500 | < 500 | CC(C)(F)C(=O)NC[C@H]1CN(S(=O)(=O)c2cccc(C(F)(F)F)c2)c2cc(-c3cc(F)ccc3F)ccc2O1 [Compound 30BE, (S)-N-((6-(2,5-difluorophenyl)-4-((3-(trifluoromethyl)phenyl)-sulfonyl)-3,4-dihydro-2H-benzo[b][1,4]oxazin-2-yl)methyl)-2-fluoro-2-methylpropanamide] | * (The symbol “*” indicates a value in the range of 25 to 90) | *** (The symbol “***” indicates a value in the range of greater than 150 to 200) |

The next lines start with the compound.

| SMILES | EC50 (Gal4-RORγ-LBD) [nM] | EC50 (RORγ-LBD) [nM] | Gal4-RORγ Assay Max Response (Gal4-RORγ-LBD) | TR-FRET Assay Max Response (RORγ-LBD) |
| --- | --- | --- | --- | --- |
| O=C(NC[C@H]1CN(S(=O)(=O)c2cccc(C(F)(F)F)c2)c2cc(-c3cc(F)ccc3F)ccc2O1)C1(F)CC1 [Compound 30AR, (S)-N-((6-(2,5-difluorophenyl)-4-((3-(trifluoromethyl)phenyl)-sulfonyl)-3,4-dihydro-2H-benzo[b][1,4]oxazin-2-yl)-methyl)-1-fluorocyclopropane-1-carboxamide] | < 500 | < 500 | * (The symbol “*” indicates a value in the range of 25 to 90) | **** (The symbol “****” indicates a value greater than 200) |
| CC(=O)N[C@@H](C(=O)NC[C@H]1CN(S(=O)(=O)c2cccc(C(F)(F)F)c2)c2cc(-c3cc(F)ccc3F)ccc2O1)C(C)C [Compound 30AS] | 500 to 5000 | < 500 | * (The symbol “*” indicates a value in the range of 25 to 90) | *** (The symbol “***” indicates a value in the range of greater than 150 to 200) |
| CC(=O)N[C@H](C)C(=O)NC[C@H]1CN(S(=O)(=O)c2cccc(C(F)(F)F)c2)c2cc(-c3cc(F)ccc3F)ccc2O1 [Compound 30AT, (R)-2-acetamido-N-(((S)-6-(2,5-difluorophenyl)-4-((3-(trifluoro-methyl)phenyl)sulfonyl)-3,4-dihydro-2H-benzo[b][1,4]-oxazin-2-yl)methyl)propanamide] | 500 to 5000 | < 500 | ** (The symbol “**” indicates a value in the range of greater than 90 to 150) | *** (The symbol “***” indicates a value in the range of greater than 150 to 200) |
| CC(C)(CO)C(=O)NC[C@H]1CN(S(=O)(=O)c2cccc(C(F)(F)F)c2)c2cc(-c3cc(F)ccc3F)ccc2O1 [Compound 30AU, (S)-N-((6-(2,5-difluorophenyl)-4-((3-(trifluoromethyl)phenyl)-sulfonyl)-3,4-dihydro-2H-benzo[b][1,4]oxazin-2-yl)methyl)-3-hydroxy-2,2-dimethylpropanamide] | < 500 | < 500 | ** (The symbol “**” indicates a value in the range of greater than 90 to 150) | **** (The symbol “****” indicates a value greater than 200) |
| CC1(C(=O)NC[C@H]2CN(S(=O)(=O)c3cccc(C(F)(F)F)c3)c3cc(-c4cc(F)ccc4F)ccc3O2)CC1 [Compound 30AV, (S)-N-((6-(2,5-difluorophenyl)-4-((3-(trifluoromethyl)phenyl)-sulfonyl)-3,4-dihydro-2H-benzo[b][1,4]oxazin-2-yl)methyl)-1-methylcyclo-propane-1-carboxamide] | < 500 | < 500 | * (The symbol “*” indicates a value in the range of 25 to 90) | *** (The symbol “***” indicates a value in the range of greater than 150 to 200) |
| C=CCC(=O)NC[C@H]1CN(S(=O)(=O)c2cccc(C(F)(F)F)c2)c2cc(-c3cc(F)ccc3F)ccc2O1 [Compound 30AW, (S)-N-((6-(2,5-difluorophenyl)-4-((3-(trifluoromethyl)phenyl)-sulfonyl)-3,4-dihydro-2H-benzo[b][1,4]oxazin-2-yl)methyl)but-3-enamide] | < 500 | < 500 | ** (The symbol “**” indicates a value in the range of greater than 90 to 150) | *** (The symbol “***” indicates a value in the range of greater than 150 to 200) |
| CC(C)C(=O)NC[C@H]1CN(S(=O)(=O)c2cccc(C(F)(F)F)c2)c2cc(-c3cc(F)ccc3F)ccc2O1 [Compound 30AX, (S)-N-((6-(2,5-difluorophenyl)-4-((3-(trifluoromethyl)phenyl)-sulfonyl)-3,4-dihydro-2H-benzo[b][1,4]oxazin-2-yl)methyl)isobutyramide] | < 500 | < 500 | ** (The symbol “**” indicates a value in the range of greater than 90 to 150) | *** (The symbol “***” indicates a value in the range of greater than 150 to 200) |
| CC(=O)OCC(=O)NC[C@H]1CN(S(=O)(=O)c2cccc(C(F)(F)F)c2)c2cc(-c3cc(F)ccc3F)ccc2O1 [Compound 30AY, (S)-2-(((6-(2,5-difluorophenyl)-4-((3-(trifluoromethyl)phenyl)-sulfonyl)-3,4-dihydro-2H-benzo[b][1,4]oxazin-2-yl)methyl)amino)-2-oxoethyl acetate] | < 500 | < 500 | ** (The symbol “**” indicates a value in the range of greater than 90 to 150) | *** (The symbol “***” indicates a value in the range of greater than 150 to 200) |
